In paper PMC3293801, “Differential Contribution of the Repeats to Heparin Binding of HBHA, a Major Adhesin of Mycobacterium tuberculosis” (PLoS ONE, 2012):

Target: T1, MalE-Ct (Mycobacterium tuberculosis, UniProt P9WIP9)
T1 construct: gene hbhA; pMAL+3R1+2R2, E. coli B834; 15N-labelled; MBP kept
Assay type: binding
Conditions: 20 mM phosphate pH 6.8, 0.15 M NaCl, 20°C, 900 MHz, 60 µM protein; apparent, single site

T1 sequence (P9WIP9 161-199): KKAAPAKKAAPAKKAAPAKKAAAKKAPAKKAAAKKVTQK

Work on dp10 heparin-derived oligosaccharide yielded a Kd of 79.4 ± 23 µM.

For dp14 heparin-derived oligosaccharide, the Kd was 58.8 ± 14 µM.
